Legend:
[1] = Stability evaluation of solution formulation (Experimental Example 2); type: physicochemical; settings: for Production rate of Alvocidib / Residual rate: solution formulation
Description: For Example 1, Example 2, Example 5, Example 6, Comparative Example 13 and Comparative Example 14, the attrition rate of the test compound and the conversion rate of the test compound to Alvocidib in a solution formulation were calculated by the following method.
Example 1, Example 2, Example 5, Example 6, Comparative Example 13 and Comparative Example 14 were each added to buffer solutions adjusted to pH 3.0, 4.0 and 5.0, respectively, at a concentration of 0.1 mg/mL, and left at 5° C. After 0, 1, 2 and 4 weeks, the residual rates of the compounds of Example 1, Example 2, […], Comparative Example 13 and Comparative Example 14 and the production rate of Alvocidib were determined by HPLC.
The buffer solutions used at each pH are as follows. • pH 3.0: 5 mM tartrate buffer solution/10% sucrose solution (pH 3.0) • pH 4.0: 5 mM tartrate buffer solution/10% sucrose solution (pH 4.0) • pH 5.0: 5 mM tartrate buffer solution/10% sucrose solution (pH 5.0)
(§1) The measurement conditions for HPLC are as follows.
• column: Acquity UPLC BEH C18, 1.7 um, 50×2.1 mm • column temperature: 40° C. • mobile phase: • A: water containing 0.1% trifluoroacetic acid • B: acetonitrile • A/B (min): • 80/20(0)→75/25(3)→0/100(3.5)→0/100(4)→80/20(4.01)→80/20(5) • flow rate: 0.8 mL/min • detection: ultraviolet visible detector, measurement wavelength 254 nm • injection: 3 μL

[2] = Evaluation of conversion rate to active form in buffer solution (Experimental Example 1); type: physicochemical
Description: For Examples 1 to 16 and Comparative Examples 1 to 14, the attrition rate of the test compound and the conversion rate of the test compound to Alvocidib in a buffer solution were calculated by the following method.
Examples 1 to 16 and Comparative Examples 1 to 14 were each left in buffer solutions adjusted to pH 5.0, 5.5, 6.0, 6.5, 7.0 and 7.4, respectively, at a concentration of 25 umol/L at 37° C. After 0, 0.5, 1, 2 and 3 hours, the residual rates of the compounds of Examples […] and the production rate of Alvocidib were determined by HPLC.
The buffer solutions used at each pH are as follows. • pH 5.0: 50 mM citrate buffer solution (pH 5.0) • pH 5.5: 50 mM citrate buffer solution (pH 5.5) • pH 6.0: 50 mM phosphate buffer solution (pH 6.0) • pH 6.5: 50 mM phosphate buffer solution (pH 6.5) • pH 7.0: 50 mM phosphate buffer solution (pH 7.0) • pH 7.4: 50 mM phosphate buffer solution (pH 7.4)
as §1

SMILES: CNCCN(C)C(=O)Oc1cc(O)c2c(=O)cc(-c3ccccc3Cl)oc2c1[C@H]1CCN(C)C[C@H]1O [Comparative Example 14, reference compound]
- Stability / conversion to Alvocidib in solution formulation at pH 3 ([1]; pH 3, 5° C., up to 4 weeks): gradually converted to Alvocidib
- Conversion to Alvocidib in solution formulation at pH 5 after 4 weeks ([1]; pH 5, 5° C., after 4 weeks): almost completely converted to Alvocidib
- Production rate of Alvocidib ([1]; pH3.0, 0 week): 1.3%
- Residual rate ([1]; pH3.0, 0 week): 98.5%
- Production rate of Alvocidib ([1]; pH3.0, 1 week): 2.7%
- Residual rate ([1]; pH3.0, 1 week): 97.1%
- Production rate of Alvocidib ([1]; pH3.0, 2 week): 3.9%
- Residual rate ([1]; pH3.0, 2 week): 95.8%
- Production rate of Alvocidib ([1]; pH3.0, 4 week): 6.1%
- Residual rate ([1]; pH3.0, 4 week): 93.6%
- Production rate of Alvocidib ([1]; pH4.0, 0 week): 2.2%
- Residual rate ([1]; pH4.0, 0 week): 97.5%
- Production rate of Alvocidib ([1]; pH4.0, 1 week): 12.8%
- Residual rate ([1]; pH4.0, 1 week): 86.7%
- Production rate of Alvocidib ([1]; pH4.0, 2 week): 21.1%
- Residual rate ([1]; pH4.0, 2 week): 78.3%
- Production rate of Alvocidib ([1]; pH4.0, 4 week): 36.2%
- Residual rate ([1]; pH4.0, 4 week): 63.0%
- Production rate of Alvocidib ([1]; pH5.0, 0 week): 13.2%
- Residual rate ([1]; pH5.0, 0 week): 86.4%
- Production rate of Alvocidib ([1]; pH5.0, 1 week): 72.5%
- Residual rate ([1]; pH5.0, 1 week): 25.7%
- Production rate of Alvocidib ([1]; pH5.0, 2 week): 90.1%
- Residual rate ([1]; pH5.0, 2 week): 8.1%
- Production rate of Alvocidib ([1]; pH5.0, 4 week): 97.1%
- Residual rate ([1]; pH5.0, 4 week): 1.1%
- Production rate of Alvocidib ([2]; pH5.0, 0 hr): 1.2%
- Residual rate ([2]; pH5.0, 0 hr): 97.3%
- Stability in buffer solution at pH 5 ([2]; pH 5, 37° C., up to 2 or 3 hours): unstable
- Conversion to Alvocidib at pH 5 within 3 hours ([2]; pH 5, 37° C., within 3 hours): mostly converted to Alvocidib
- Production rate of Alvocidib ([2]; pH5.0, 0.5 hr): 17.9%
- Residual rate ([2]; pH5.0, 0.5 hr): 80.3%
- Production rate of Alvocidib ([2]; pH5.0, 1 hr): 31.1%
- Residual rate ([2]; pH5.0, 1 hr): 66.8%
- Production rate of Alvocidib ([2]; pH5.0, 2 hr): 53.7%
- Residual rate ([2]; pH5.0, 2 hr): 45.6%
- Production rate of Alvocidib ([2]; pH5.0, 3 hr): 68.5%
- Residual rate ([2]; pH5.0, 3 hr): 30.7%
- Production rate of Alvocidib ([2]; pH5.5, 0 hr): 1.4%
- Residual rate ([2]; pH5.5, 0 hr): 97.2%
- Production rate of Alvocidib ([2]; pH5.5, 0.5 hr): 44.2%
- Residual rate ([2]; pH5.5, 0.5 hr): 53.8%
- Production rate of Alvocidib ([2]; pH5.5, 1 hr): 67.2%
- Residual rate ([2]; pH5.5, 1 hr): 30.3%
- Production rate of Alvocidib ([2]; pH5.5, 2 hr): 88.5%
- Residual rate ([2]; pH5.5, 2 hr): 8.7%
- Production rate of Alvocidib ([2]; pH5.5, 3 hr): 93.9%
- Residual rate ([2]; pH5.5, 3 hr): 2.9%
- Production rate of Alvocidib ([2]; pH6.0, 0 hr): 1.9%
- Residual rate ([2]; pH6.0, 0 hr): 96.7%
- Production rate of Alvocidib ([2]; pH6.0, 0.5 hr): 88.1%
- Residual rate ([2]; pH6.0, 0.5 hr): 9.0%
- Production rate of Alvocidib ([2]; pH6.0, 1 hr): 95.7%
- Residual rate ([2]; pH6.0, 1 hr): 1.2%
- Production rate of Alvocidib ([2]; pH6.0, 2 hr): 97.0%
- Residual rate ([2]; pH6.0, 2 hr): 0.0%
- Production rate of Alvocidib ([2]; pH6.0, 3 hr): 97.1%
- Residual rate ([2]; pH6.0, 3 hr): 0.0%
- Production rate of Alvocidib ([2]; pH6.5, 0 hr): 3.2%
- Residual rate ([2]; pH6.5, 0 hr): 95.4%
- Production rate of Alvocidib ([2]; pH6.5, 0.5 hr): 97.0%
- Residual rate ([2]; pH6.5, 0.5 hr): 0.0%
- Production rate of Alvocidib ([2]; pH6.5, 1 hr): 96.7%
- Residual rate ([2]; pH6.5, 1 hr): 0.0%
- Production rate of Alvocidib ([2]; pH6.5, 2 hr): 98.2%
- Residual rate ([2]; pH6.5, 2 hr): 0.0%
- Production rate of Alvocidib ([2]; pH6.5, 3 hr): 97.6%
- Residual rate ([2]; pH6.5, 3 hr): 0.0%
- Production rate of Alvocidib ([2]; pH7.0, 0 hr): 6.9%
- Residual rate ([2]; pH7.0, 0 hr): 91.7%
- Production rate of Alvocidib ([2]; pH7.0, 0.5 hr): 96.8%
- Residual rate ([2]; pH7.0, 0.5 hr): 0.0%
- Production rate of Alvocidib ([2]; pH7.0, 1 hr): 96.8%
- Residual rate ([2]; pH7.0, 1 hr): 0.0%
- Production rate of Alvocidib ([2]; pH7.0, 2 hr): 96.7%
- Residual rate ([2]; pH7.0, 2 hr): 0.0%
- Production rate of Alvocidib ([2]; pH7.0, 3 hr): 96.7%
- Residual rate ([2]; pH7.0, 3 hr): 0.0%
- Production rate of Alvocidib ([2]; pH7.4, 0 hr): 14.2%
- Residual rate ([2]; pH7.4, 0 hr): 84.4%
- Production rate of Alvocidib ([2]; pH7.4, 0.5 hr): 97.3%
- Residual rate ([2]; pH7.4, 0.5 hr): 0.0%
- Production rate of Alvocidib ([2]; pH7.4, 1 hr): 97.2%
- Residual rate ([2]; pH7.4, 1 hr): 0.0%
- Production rate of Alvocidib ([2]; pH7.4, 2 hr): 97.2%
- Residual rate ([2]; pH7.4, 2 hr): 0.0%
- Production rate of Alvocidib ([2]; pH7.4, 3 hr): 97.2%
- Residual rate ([2]; pH7.4, 3 hr): 0.0%

Reference: patent US12617779B2, “Self degradation-type CDK9 inhibitor prodrug and liposome encapsulating same” (Sumitomo Pharma Co., Ltd., priority 2021, dated 2026)
